{
  "source": "ChEMBL document CHEMBL3881525",
  "about": "“Analogs of dehydrophenylahistins and their therapeutic use” (2007)",
  "key": {"[1]": {"assay": "Antiproliferative activity against taxol-sensitive human MES-SA cells […]", "type": "functional, cell-based"}, "[2]": {"biological_target": "T1, Tubulin (Homo sapiens) (UniProt P68371+Q9H4B7+P0DPH7+P68366+Q13509+Q71U36+P04350+Q3ZCM7+P07437+P68363+Q9BQE3+Q6PEY2+Q13885+Q9BVA1+Q9BUF5)", "assay": "Induction of microtubule depolymerization in HUVEC at 2 uM measured after 30 mins", "type": "cell-based"}, "[3]": {"biological_target": "T1, Tubulin (Homo sapiens)", "assay": "Induction of microtubule depolymerization in human CCD-27Sk cells at 2 uM measured after 30 mins", "type": "cell-based"}, "[4]": {"system": "HUVEC", "assay": "Induction of monolayer permeability in HUVEC assessed as colchicin transport at 2 uM measured up to 1 hr", "type": "functional, cell-based", "settings": "Homo sapiens"}, "[5]": {"assay": "Antitumor activity against human DU145 cells xenografted in nude mouse assessed as tumor growth inhibition at 7.5 mg/kg, iv administered every third day for 5 days measured on day 28 relative to control", "type": "functional", "settings": "DU-145, iv, read-out: TGI"}, "[6]": {"assay": "Antifungal activity against Trichophyton mentagrophytes isolate 2 measured after 48 hrs by broth dilution method", "type": "functional"}, "[7]": {"assay": "Toxicity in mouse allografted with mouse N202 tumor spheroids expressing H2B-GFP assessed as effect on tumor surrounding vasculature in the dorsal skin fold at 5 mg/kg, iv administered on day 12 as infusion for 2 mins measured on day 15", "type": "organism-based", "settings": "in vivo"}, "[8]": {"assay": "Toxicity in mouse allografted with mouse N202 tumor spheroids expressing H2B-GFP assessed as effect on tumor surrounding vasculature in the dorsal skin fold at 10 mg/kg, iv administered on day 13 as infusion for 5 mins measured on day 15", "type": "organism-based", "settings": "in vivo"}, "[9]": {"system": "Rattus norvegicus", "assay": "Reduction in blood flow in rat brain at 15 mg/kg, ip measured after 24 hrs by [125I]iodoantipyrine based method relative to vehicle control", "type": "ADME, organism-based", "settings": "in vivo"}, "[10]": {"system": "Rattus norvegicus", "assay": "Increase in blood flow in rat skeletal muscle at 15 mg/kg, ip measured after 24 hrs by [125I]iodoantipyrine based method relative to vehicle control", "type": "ADME, organism-based", "settings": "in vivo"}, "[11]": {"system": "P22", "assay": "Induction of necrosis in rat P22 cells implanted in rat compound administered intraperitoneally measured after 24 hrs post dose", "type": "functional, cell-based"}, "[12]": {"system": "MCF7", "assay": "Antimitotic activity in human MCF7 cells assessed as microtubule polymer at twice mitotic block IC50 measured after 20 hrs by immunofluorescence analysis relative to control", "type": "functional, cell-based"}, "[13]": {"biological_target": "T1, Tubulin (Homo sapiens)", "assay": "Induction of microtubule dynamic instability in human MCF7 cells at IC25 for mitotic block measured after 20 hrs by immunofluorescence analysis", "type": "cell-based"}, "[14]": {"biological_target": "Mitogen-activated protein kinase 10 (Rattus norvegicus) (UniProt P49187)", "sequence (P49187 whole entry)": "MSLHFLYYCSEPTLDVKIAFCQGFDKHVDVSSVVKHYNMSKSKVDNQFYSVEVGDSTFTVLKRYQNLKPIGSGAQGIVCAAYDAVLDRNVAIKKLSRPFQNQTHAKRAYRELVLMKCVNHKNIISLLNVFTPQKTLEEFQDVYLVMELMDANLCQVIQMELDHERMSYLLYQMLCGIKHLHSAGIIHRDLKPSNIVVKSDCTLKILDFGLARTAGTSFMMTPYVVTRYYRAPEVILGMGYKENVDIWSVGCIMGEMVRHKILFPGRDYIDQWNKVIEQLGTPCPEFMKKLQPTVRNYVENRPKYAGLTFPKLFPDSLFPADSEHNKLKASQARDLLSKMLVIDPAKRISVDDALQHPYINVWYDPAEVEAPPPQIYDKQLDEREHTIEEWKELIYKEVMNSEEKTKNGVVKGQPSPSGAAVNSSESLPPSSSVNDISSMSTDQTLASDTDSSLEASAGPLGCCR", "settings": "10 uM", "description": "Inhibition of rat JNK3 at 10 uM in presence of ATP"}},
  "note": "Activity calls are given as the source filed them. The rule behind the calls is not given here.",
  "data": [
    {"compound": "CC(C)(C)c1[nH]cnc1/C=c1\\[nH]c(=O)/c(=C/c2ccccc2)[nH]c1=O", "note": "[PLINABULIN]", "values": [
      {"measurement": "EC50", "setting": "[1]", "result": "8.5 to 34", "unit": "nM"},
      {"measurement": "Activity", "setting": "[2]", "result": "Active"},
      {"measurement": "Activity", "setting": "[3]", "result": "Active"},
      {"measurement": "Activity", "setting": "[4]", "result": "Active"},
      {"measurement": "inhibition in vivo at 7.5 mg/kg", "setting": "[5]", "result": 92.5, "unit": "%"},
      {"measurement": "MIC", "setting": "[6]", "result": "> 16", "unit": "µg/mL"},
      {"measurement": "Activity", "setting": "[7]", "result": "Non-Toxic"},
      {"measurement": "Activity", "setting": "[8]", "result": "Non-Toxic"},
      {"measurement": "Activity", "setting": "[9]", "result": "Toxic"},
      {"measurement": "Activity", "setting": "[10]", "result": "Toxic"},
      {"measurement": "Activity", "setting": "[11]", "result": "Dose-dependent effect"},
      {"measurement": "Activity", "setting": "[12]", "result": "Active"},
      {"measurement": "Activity", "setting": "[13]", "result": 10.1, "unit": "um/min"},
      {"measurement": "inhibition", "setting": "[14]", "result": "> 50", "unit": "%"}
    ]}
  ]
}
